A word on the IC50: it is the concentration needed to halve the response being measured. The solubility is the dissolved amount per volume that the medium holds. High values mean much dissolved substance, low ones little dissolved substance.

Each structure is given as a SMILES string. Values after ≈ are worked out from the molar mass of the structure shown. Numbered stars: 1 amine (or outer) side, 2 acyl side, 3 side chain; on linkers, the order of the positions; unused ones are H or OH. Square brackets hold non-standard residues; d marks the D form. Side chains are listed from the residue outwards. Peptide text beside a SMILES is read from it. * marks the point of attachment. C20 diacid = O=C(O)CCCCCCCCCCCCCCCCCCC(=O)*; γGlu = O=C(O)[C@H](CCC(=O)[*:2])N[*:1]

Results on five compounds are retold here after patent publication US9593149B2, “Amylin and calcitonin receptor agonist” (Novo Nordisk A/S, priority 2014, dated 2017).

The nature of data set [1]: Assay (IV) determination of solubility. Format: physicochemical. On the procedure: Assay (IV)—Determination of Solubility
The mimylin peptide was dissolved in water at ˜500 nmol/ml and mixed 1:1 with a series of buffers (100 mM glycylglycine pH 3.0, 100 mM glycylglycine pH 4.0, 100 mM glycylglycine pH 5.0, 100 mM bistrispropane pH 6.0, 100 mM bistrispropane pH 6.5, 100 mM bistrispropane pH 7.0, 100 mM bistrispropane pH 7.5, 100 mM bistrispropane pH 8.0).

The target in another data set is T1, rat calcitonin receptor (Rattus norvegicus, UniProt P32214).
T1 construct: expressed in transfected cells; host or cells: BHK tk'ts 13 (transient, FuGENE 6)
T1 sequence (P32214 25-479 isoform P32214-2 limits assumed): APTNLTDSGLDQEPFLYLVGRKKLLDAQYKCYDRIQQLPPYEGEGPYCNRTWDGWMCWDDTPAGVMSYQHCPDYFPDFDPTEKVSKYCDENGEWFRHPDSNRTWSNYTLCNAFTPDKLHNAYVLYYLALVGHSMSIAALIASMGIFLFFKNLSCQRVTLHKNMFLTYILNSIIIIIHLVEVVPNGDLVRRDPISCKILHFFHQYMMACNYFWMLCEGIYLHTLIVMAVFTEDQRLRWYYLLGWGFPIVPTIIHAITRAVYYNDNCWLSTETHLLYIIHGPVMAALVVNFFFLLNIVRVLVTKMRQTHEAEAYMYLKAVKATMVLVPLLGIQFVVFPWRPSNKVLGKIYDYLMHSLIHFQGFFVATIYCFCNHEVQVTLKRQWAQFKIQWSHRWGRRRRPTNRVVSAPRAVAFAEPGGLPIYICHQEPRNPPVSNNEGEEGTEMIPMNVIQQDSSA
As to the kind of experiment: Assay (VIII) binding to the rat calcitonin receptor. The note with it: membranes; read-out: rCT-R binding IC50. As for the experimental part:
The morning after, the plates were washed three times in HBSS (4° C.), and lyzed in Lysis buffer (0.1 M NaOH), 1% SDS. Scintillation cocktail (MicroScint40®) was added and the plates were shaken at 500 rpm for a short period. The plate was incubated at room temperature in the dark for 1 hour and Read on a TopCounter™ (Packard). The IC50 was calculated using (one site binding competition analysis) GraphPad Prism5 as a measure of receptor affinity. Assay (VIII)—Determination of Binding to the Rat Calcitonin Receptor
The assay was performed as described above (Assay (VII)—Determination of binding to the human calcitonin receptor) with the exception that we used membranes prepared from BHK tk'ts 13 cells that were transiently transfected with the rat calcitonin receptor. The BHK tk'ts 13 cells were transiently transfected with rat calcitonin receptor using FuGENE® 6 (Roche), according to the manufacturer's recommendations. Cells were grown in DMEM with 10% FBS and 1% Pen/Strep.

On to `CC(C)C[C@H](NC(=O)[C@H](C)NC(=O)[C@H](C)NC(=O)[C@@H](NC(=O)[C@H](CO)NC(=O)[C@H](CC(C)C)NC(=O)[C@H](CCC(=O)O)NC(=O)[C@H](CO)NC(=O)[C@H](C)N)[C@@H](C)O)C(=O)NCC(=O)N[C@@H](CCCNC(=N)N)C(=O)N[C@@H](CC(C)C)C(=O)N[C@@H](CO)C(=O)N[C@@H](C)C(=O)N[C@@H](CCC(=O)O)C(=O)N[C@@H](CC(C)C)C(=O)N[C@@H](Cc1cnc[nH]1)C(=O)N[C@@H](CCCCNC(=O)CC[C@H](NC(=O)CCCCCCCCCCCCCCCCCCC(=O)O)C(=O)O)C(=O)N[C@@H](CC(C)C)C(=O)N[C@@H](C)C(=O)N[C@H](C(=O)N[C@@H](CC(C)C)C(=O)N1CCC[C@H]1C(=O)N[C@@H](CCCNC(=N)N)C(=O)N[C@H](C(=O)N[C@@H](CCC(=O)O)C(=O)N[C@H](C(=O)NCC(=O)N[C@@H](CO)C(=O)NCC(=O)N[C@@H](CO)C(=O)N1CCC[C@H]1C(N)=O)[C@@H](C)O)[C@@H](C)O)[C@@H](C)O` [compound 54, [des1, 19K(C20 diacid-gGlu), 30S, 31G]mimylin] (H-ASELSTAALGRLSAELHK([γGlu-C20 diacid])LATLPRTETGSGSP-NH2), for which the Solubility result in data set [1] (pH 3.0), in data set [1] (pH 4.0), in data set [1] (pH 5.0), in data set [1] (pH 6.0), in data set [1] (pH 6.5) and in data set [1] (pH 7.0) was “≧200 μM” each time. The Solubility result in data set [1] (pH 7.5) and in data set [1] (pH 8.0) was “≧200 μM” each time. The IC50 on rat calcitonin receptor is 0.044 nM.
In the case of `CC(C)C[C@H](NC(=O)[C@H](C)NC(=O)[C@H](C)NC(=O)[C@@H](NC(=O)[C@H](CO)NC(=O)[C@H](CC(C)C)NC(=O)[C@H](CCC(=O)O)NC(=O)[C@H](CO)NC(=O)[C@H](C)NC(=O)CC[C@H](NC(=O)CCCCCCCCCCCCCCCCCCC(=O)O)C(=O)O)[C@@H](C)O)C(=O)NCC(=O)N[C@@H](CCCNC(=N)N)C(=O)N[C@@H](CC(C)C)C(=O)N[C@@H](CO)C(=O)N[C@@H](C)C(=O)N[C@@H](CCC(=O)O)C(=O)N[C@@H](CC(C)C)C(=O)N[C@@H](Cc1cnc[nH]1)C(=O)N[C@@H](CCC(=O)O)C(=O)N[C@@H](CC(C)C)C(=O)N[C@@H](C)C(=O)N[C@H](C(=O)N[C@@H](CC(C)C)C(=O)N1CCC[C@H]1C(=O)N[C@@H](CCCNC(=N)N)C(=O)N[C@H](C(=O)N[C@@H](CCC(=O)O)C(=O)N[C@H](C(=O)NCC(=O)N[C@@H](CO)C(=O)NCC(=O)N[C@@H](CO)C(=O)N[C@@H](Cc1ccc(O)cc1)C(N)=O)[C@@H](C)O)[C@@H](C)O)[C@@H](C)O` [compound 59, [N-terminal(C20 diacid-gGlu), des1, 30S, 31G, 33Y]mimylin] ({C20 diacid-γGlu}-ASELSTAALGRLSAELHELATLPRTETGSGSY-NH2), the Solubility entry in data set [1] (pH 3.0), in data set [1] (pH 4.0), in data set [1] (pH 6.0), in data set [1] (pH 6.5), in data set [1] (pH 7.0) and in data set [1] (pH 7.5) was “≧200 μM” each time. In addition, in data set [1] (pH 8.0), the Solubility result is “≧200 μM”. In data set [1] (pH 5.0), this compound had a solubility at 18 h of 73 µM (≈ 273 µg/mL). Further, on rat calcitonin receptor, the IC50 turned out to be 0.023 nM.
Turning to `CC(C)C[C@H](NC(=O)[C@H](C)NC(=O)[C@H](C)NC(=O)[C@@H](NC(=O)[C@H](CO)NC(=O)[C@H](CC(C)C)NC(=O)[C@H](CCC(=O)O)NC(=O)[C@H](CO)NC(=O)[C@H](C)NC(=O)CC[C@H](NC(=O)CCCCCCCCCCCCCCCCCCC(=O)O)C(=O)O)[C@@H](C)O)C(=O)NCC(=O)N[C@@H](CCCNC(=N)N)C(=O)N[C@@H](CC(C)C)C(=O)N[C@@H](CO)C(=O)N[C@@H](C)C(=O)N[C@@H](CCC(=O)O)C(=O)N[C@@H](CC(C)C)C(=O)N[C@@H](Cc1cnc[nH]1)C(=O)N[C@@H](CCC(=O)O)C(=O)N[C@@H](CC(C)C)C(=O)N[C@@H](C)C(=O)N[C@H](C(=O)N[C@@H](CC(C)C)C(=O)N1CCC[C@H]1C(=O)N[C@@H](CCCNC(=N)N)C(=O)N[C@H](C(=O)N[C@@H](CCC(=O)O)C(=O)N[C@H](C(=O)NCC(=O)N[C@@H](CO)C(=O)NCC(=O)N[C@@H](CO)C(=O)N[C@@H](Cc1cnc[nH]1)C(N)=O)[C@@H](C)O)[C@@H](C)O)[C@@H](C)O` [compound 60, [N-terminal(C20 diacid-gGlu), des1, 30S, 31G, 33H]mimylin] ({C20 diacid-γGlu}-ASELSTAALGRLSAELHELATLPRTETGSGSH-NH2), the Solubility entry in data set [1] (pH 3.0), in data set [1] (pH 4.0), in data set [1] (pH 5.0), in data set [1] (pH 6.0), in data set [1] (pH 6.5) and in data set [1] (pH 7.0) was “≧200 μM” throughout. The Solubility result in data set [1] (pH 7.5) and in data set [1] (pH 8.0) was “≧200 μM” in each case. In addition, the IC50 at rat calcitonin receptor stood at 0.02 nM.
As for `CC(C)C[C@H](NC(=O)[C@H](C)NC(=O)[C@H](C)NC(=O)[C@@H](NC(=O)[C@H](CO)NC(=O)[C@H](CC(C)C)NC(=O)[C@H](CCC(=O)O)NC(=O)[C@H](CO)NC(=O)[C@H](C)NC(=O)CC[C@H](NC(=O)CCCCCCCCCCCCCCCCCCC(=O)O)C(=O)O)[C@@H](C)O)C(=O)NCC(=O)N[C@@H](CCCNC(=N)N)C(=O)N[C@@H](CC(C)C)C(=O)N[C@@H](CO)C(=O)N[C@H](CCC(=O)O)C(=O)N[C@@H](CCC(=O)O)C(=O)N[C@@H](CC(C)C)C(=O)N[C@@H](Cc1cnc[nH]1)C(=O)N[C@@H](CCC(=O)O)C(=O)N[C@@H](CC(C)C)C(=O)N[C@@H](C)C(=O)N[C@H](C(=O)N[C@@H](CC(C)C)C(=O)N1CCC[C@H]1C(=O)N[C@@H](CCCNC(=N)N)C(=O)N[C@H](C(=O)N[C@@H](CCC(=O)O)C(=O)N[C@H](C(=O)NCC(=O)N[C@@H](CO)C(=O)NCC(=O)N[C@@H](CO)C(=O)N1CCC[C@H]1C(N)=O)[C@@H](C)O)[C@@H](C)O)[C@@H](C)O` [compound 67, [N-terminal(C20 diacid-gGlu), des1, 15e, 30S, 31G]mimylin] ({C20 diacid-γGlu}-ASELSTAALGRLS[dE]ELHELATLPRTETGSGSP-NH2), the Solubility entry in data set [1] (pH 3.0), in data set [1] (pH 4.0), in data set [1] (pH 5.0), in data set [1] (pH 6.0), in data set [1] (pH 6.5) and in data set [1] (pH 7.0) was “≧200 μM” each time. Moreover, the Solubility entry in data set [1] (pH 7.5) and in data set [1] (pH 8.0) was “≧200 μM” throughout. Besides, the IC50 at rat calcitonin receptor came out at 0.017 nM.
Take `CC(=O)N[C@@H](C)C(=O)N[C@@H](CO)C(=O)N[C@@H](CCC(=O)O)C(=O)N[C@@H](CC(C)C)C(=O)N[C@@H](CO)C(=O)N[C@H](C(=O)N[C@@H](C)C(=O)N[C@@H](C)C(=O)N[C@@H](CC(C)C)C(=O)NCC(=O)N[C@@H](CCCNC(=N)N)C(=O)N[C@@H](CC(C)C)C(=O)N[C@@H](CO)C(=O)N[C@@H](C)C(=O)N[C@@H](CCCCNC(=O)CC[C@H](NC(=O)CCCCCCCCCCCCCCCCCCC(=O)O)C(=O)O)C(=O)N[C@@H](CC(C)C)C(=O)N[C@@H](Cc1cnc[nH]1)C(=O)N[C@@H](CCC(=O)O)C(=O)N[C@@H](CC(C)C)C(=O)N[C@@H](C)C(=O)N[C@H](C(=O)N[C@@H](CC(C)C)C(=O)N1CCC[C@H]1C(=O)N[C@@H](CCCNC(=N)N)C(=O)N[C@H](C(=O)N[C@@H](CCC(=O)O)C(=O)N[C@H](C(=O)NCC(=O)N[C@@H](CO)C(=O)NCC(=O)N[C@@H](CO)C(=O)N1CCC[C@H]1C(N)=O)[C@@H](C)O)[C@@H](C)O)[C@@H](C)O)[C@@H](C)O` [compound 69, [N-terminal(acetyl), des1, 16K(C20 diacid-gGlu), 30S, 31G]mimylin] (Ac-ASELSTAALGRLSAK([γGlu-C20 diacid])LHELATLPRTETGSGSP-NH2): the Solubility entry in data set [1] (pH 3.0), in data set [1] (pH 4.0), in data set [1] (pH 5.0), in data set [1] (pH 6.0), in data set [1] (pH 6.5) and in data set [1] (pH 7.0) was “≧200 μM” in each case. Also, the Solubility entry in data set [1] (pH 7.5) and in data set [1] (pH 8.0) was “≧200 μM” in each case. Also, on rat calcitonin receptor, the IC50 worked out at 0.042 nM.
